Test results published in US5625043A, “Anthracyclines with unusually high activity against cells resistant to doxorubicin and its analogs” (Priebe; Waldemar, priority 1995, dated 1997).

Experiments:
J774.2 cells = assay: Cytotoxicity against J774.2 cells; format: cell-based, murine; conditions: Mus musculus, J774.2; read-out: ID50 (the source's name)
J7/A300 cells = assay: Cytotoxicity against AD 198-resistant J7/A300 cells; format: cell-based, murine
J7/40V cells = assay: Cytotoxicity against vinblastine-resistant J7/40V cells; format: cell-based, murine
purified DNA = conditions: compared with anthracycline; cited from earlier work
RNA versus DNA synthesis = conditions: compared with anthracycline; cited from earlier work
G2/M blockade = conditions: compared with anthracycline; cited from earlier work
membrane = conditions: compared with anthracycline; cited from earlier work
[1] = tested on: purified mammalian topoisomerase II; conditions: cited from earlier work
DNA = conditions: alkaline elution assays; cited from earlier work
[2] = tested on: cultured murine and human tumor cells; conditions: compared with anthracycline; cited from earlier work
[3] = tested on: P388 and L1210 leukemic cells and B16-BL6 melanoma cells; conditions: cited from earlier work
[4] = tested on: variant CCRF-CEM leukemic cells; conditions: cited from earlier work
[5] = tested on: transplanted MDR L1210 cells; conditions: cited from earlier work
AD 198^R cells = AD 198^R cells versus drug-sensitive cells; cited from earlier work
[6] = tested on: MDR J774.2 cells selected with vinblastine; conditions: MDR J774.2 selected with vinblastine; cited from earlier work
P-gp = conditions: not told; cited from earlier work

In the case of `CCCCC(=O)OCC(=O)[C@]1(O)Cc2c(O)c3c(c(O)c2[C@@H](O[C@H]2C[C@H](NCc4ccccc4)[C@H](O)[C@H](C)O2)C1)C(=O)c1c(OC)cccc1C3=O` [AD 198], the IC50 (J774.2 cells) is reported as 49 nM, the “resistance of cell line to the selecting drug” value (J7/A300 cells; AD 198 resistant J7/A300 cells) is reported as 15 -fold and the “RI J7/A300” value (J7/A300 cells; J7/A300 versus J774.2) is reported as 15. For the same compound, the IC50 (J7/A300 cells; Mus musculus, J7/A300, read-out: ID50 (the source's name)) was 748 nM, the “RI J7/40V” value (J7/40V cells; J7/40V versus J774.2) was 14 and the IC50 (J7/40V cells; Mus musculus, J7/40V, read-out: ID50 (the source's name)) was 663 nM. The “binding to purified DNA” value (purified DNA) was “weaker binding to purified DNA”, the “inhibition of RNA versus DNA synthesis” value (RNA versus DNA synthesis) was “preferential inhibition of RNA versus DNA synthesis” and the G2/M blockade (G2/M blockade) was “irreversible G2 /M blockade”. The membrane lytic activity (membrane) was “pronounced membrane lytic activity”, the “inhibition of purified mammalian topoisomerase II” value [1] was “lack of inhibition” and the “protein-associated DNA strand breaks” value (DNA) was “significant levels of protein-associated DNA strand breaks”. For the same compound, the cytotoxicity [2] was “enhanced cytotoxicity”, the “ability to circumvent MDR” value [3] was “ability to circumvent MDR” and the “ability to circumvent MDR and resistance due to altered topoisomerase II activity” value [4] was “ability to circumvent MDR”. The efficacy in vivo [5] was “limited efficacy”, the “intracellular level of AD 198” value (AD 198^R cells) was “high levels of intracellular AD 198 similar to that of drug-sensitive cells” and the cross-resistance [6] was “cross-resistant to AD 198”. For the same compound, the “transport by P-gp from the cell” value (P-gp) was “inability of P-gp to transport AD 198 from the cell”.
